Assays:
Conditions in all cases: incubation time: 72 h
MDA-MB-453 = assay: drug sensitivity score (DSS), CellTox Green (DSS (AUC-based score)); higher = stronger drug effect (viability inhibition or cytotoxicity); extreme values may be limits of the assay
Outline: (§1)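 Each compound occupied 5 concentrations in 10-fold steps over its own 10,000-fold range in 384-well plates, into which breast cancer cell lines were seeded as 20 µl suspension. Following 72 h of incubation, CellTox Green fluorescence (485/520 nm) was measured, and CellTiter-Glo luminescence was measured after 10 min at room temperature. Plates were individually normalised to 0.1 % DMSO and a positive kill control. From the area under the fitted dose-response curve, a drug sensitivity score was calculated.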

HCC1937 = assay: as above
Outline: as §1

MCF-10A = assay: as above
Outline: as §1

HDQ-P1 = assay: as above
Outline: as §1

MDA-MB-436 = assay: as above
Outline: as §1

MDA-MB-231 = assay: as above
Outline: as §1

Hs578T [1] = assay: as above
Outline: as §1

BT-549 = assay: as above
Outline: as §1

BT-474 = assay: as above
Outline: as §1

MFM-223 [2] = assay: as above
Outline: as §1

DU-4475 = assay: as above
Outline: as §1

HCC1143 = assay: as above
Outline: as §1

CAL-120 [3] = assay: as above
Outline: as §1

CAL-51 [4] = assay: as above
Outline: as §1

HCC1599 = assay: as above
Outline: as §1

CAL-148 = assay: as above
Outline: as §1

CAL-85-1 = assay: as above
Outline: as §1

MDA-MB-468 = assay: drug sensitivity score (DSS), CellTiter-Glo (DSS (AUC-based score)); higher = stronger drug effect (viability inhibition or cytotoxicity); extreme values may be limits of the assay
Outline: as §1

Hs578T [5] = assay: as above
Outline: as §1

MFM-223 [6] = assay: as above
Outline: as §1

CAL-120 [7] = assay: as above
Outline: as §1

CAL-51 [8] = assay: as above
Outline: as §1

Measured: drug sensitivity score

CC(=O)Nc1ccc(C(=O)Nc2ccccc2N)cc1 [Tacedinaline]
0: all assays above

Source: the supplement of paper PMC4862054
